Measurements published in US20260297070A1, “CYCLIC [COMPOUND LEFT OUT] WRN INHIBITORS” (Nimbus Wadjet, Inc., priority 2023, published 2026).

target: T1, human Werner helicase (WRN-BV08, Uniprot Q14191, amino acids 517-1235 with L1074F point mutation) (Homo sapiens, UniProt Q14191, L1074F); experiment: WRN (BV08) ADP-Glo Assay; format: biochemical; settings: 0.15 nM WRN, 5 μM ATP, 0.1 nM DNA duplex, 15 min preincubation, 60 min at 25° C., pH 7.5, 1% DMSO; read-out: ADP-Glo_hWRN_IC50
T1 construct: Uniprot Q14191, amino acids 517-1235 with L1074F point mutation; TEV-cleavable 8×His (C, cleaved yes); made in house; host or cells: Sf9 insect cells (baculovirus)
Outline: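 Helicase ATPase activity is measured at 25 °C over 60 min using 0.15 nM enzyme, 5 μM ATP and 0.1 nM DNA duplex, final DMSO 1%. ADP production is detected by luminescence, with IC50 derived by curve fitting.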

T1 sequence (Q14191 with tags, fused parts or gaps L1074F limits assumed): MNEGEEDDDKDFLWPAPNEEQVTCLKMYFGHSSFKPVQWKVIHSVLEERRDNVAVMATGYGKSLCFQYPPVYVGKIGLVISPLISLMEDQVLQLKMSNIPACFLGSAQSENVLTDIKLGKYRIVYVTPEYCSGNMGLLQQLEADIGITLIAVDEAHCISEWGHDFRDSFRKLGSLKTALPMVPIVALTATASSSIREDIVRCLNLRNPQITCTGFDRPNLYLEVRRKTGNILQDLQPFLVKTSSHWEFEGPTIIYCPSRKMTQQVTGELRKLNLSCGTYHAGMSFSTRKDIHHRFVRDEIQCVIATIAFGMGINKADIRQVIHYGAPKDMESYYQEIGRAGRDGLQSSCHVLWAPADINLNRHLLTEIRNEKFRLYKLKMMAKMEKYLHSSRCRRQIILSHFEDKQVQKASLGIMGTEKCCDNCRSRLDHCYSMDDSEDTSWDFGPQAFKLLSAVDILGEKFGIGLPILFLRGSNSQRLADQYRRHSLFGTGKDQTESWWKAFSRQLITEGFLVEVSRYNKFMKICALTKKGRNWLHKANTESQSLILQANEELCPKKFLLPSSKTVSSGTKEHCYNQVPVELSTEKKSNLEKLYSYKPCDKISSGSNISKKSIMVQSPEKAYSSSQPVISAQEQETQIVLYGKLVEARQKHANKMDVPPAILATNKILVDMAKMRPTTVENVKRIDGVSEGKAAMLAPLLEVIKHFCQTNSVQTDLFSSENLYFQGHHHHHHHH

IC50 [µM]	SMILES
> 50	COc1cc(CN(C(=O)C(c2ccc(-c3ccc(F)c(F)c3)cc2F)n2ncnn2)[C@@H]2C=CS(=O)(=O)C2)ccn1 (stereo partly drawn) [I-731, N-[(3R)-1,1-dioxo-2,3-dihydro-1lambda6-thiophen-3-yl]-N-[(2-methoxypyridin-4-yl)methyl]-2-(2H-1,2,3,4-tetrazol-2-yl)-2-{3,3′,4′-trifluoro-[1,1′-biphenyl]-4-yl}acetamide]
10 to 50	COc1cc(CN(C(=O)CCc2ccc(S(F)(F)(F)(F)F)cc2)C2C=CS(=O)(=O)C2)ccn1 (stereo not shown) [I-343, N-(1,1-dioxo-2,3-dihydro-1lambda6-thiophen-3-yl)-N-[(2-methoxypyridin-4-yl)methyl]-3-[4-(pentafluoro-lambda6-sulfanyl)phenyl]propanamide]
0.5 to 5	O=C(C(C(=O)N(Cc1ccncc1)C1C=CS(=O)(=O)C1)c1ccc(-c2ccc(F)cc2)cc1)N1CCC1 (stereo not shown) [I-140, 3-(azetidin-1-yl)-N-(1,1-dioxo-2,3-dihydro-1lambda6-thiophen-3-yl)-2-{4′-fluoro-[1,1′-biphenyl]-4-yl}-3-oxo-N-[(pyridin-4-yl)methyl]propanamide]
> 50	O=C(Cc1ccn(-c2ccccc2)n1)N(Cc1ccncc1)C1C=CS(=O)(=O)C1 (stereo not shown) [I-390, N-(1,1-dioxo-2,3-dihydro-1lambda6-thiophen-3-yl)-2-(1-phenyl-1H-pyrazol-3-yl)-N-[(pyridin-4-yl)methyl]acetamide]
5 to 10	O=C(Cc1ccc(-n2cccc2)cc1)N(Cc1ccc2nccnc2c1)C1C=CS(=O)(=O)C1 (stereo not shown) [I-251, N-(1,1-dioxo-2,3-dihydro-1lambda6-thiophen-3-yl)-2-[4-(1H-pyrrol-1-yl)phenyl]-N-[(quinoxalin-6-yl)methyl]acetamide]
> 50	O=C(Cc1ccc(C(F)(F)F)cn1)N(Cc1ccncc1)C1C=CS(=O)(=O)C1 (stereo not shown) [I-389, N-(1,1-dioxo-2,3-dihydro-1lambda6-thiophen-3-yl)-N-[(pyridin-4-yl)methyl]-2-[5-(trifluoromethyl)pyridin-2-yl]acetamide]
> 50	O=C(C(c1ccc(Cl)cc1)c1ccc(Cl)cc1)N(Cc1ccncc1)C1C=CS(=O)(=O)C1 (stereo not shown) [I-526, 2,2-bis(4-chlorophenyl)-N-(1,1-dioxo-2,3-dihydro-1lambda6-thiophen-3-yl)-N-[(pyridin-4-yl)methyl]acetamide]
0.5 to 5	O=C(Cc1ccc(-c2cc(F)cc(F)c2)cc1)N(Cc1ccncc1)C1C=CS(=O)(=O)C1 (stereo not shown) [I-166, 2-{3′,5′-difluoro-[1,1′-biphenyl]-4-yl}-N-(1,1-dioxo-2,3-dihydro-1lambda6-thiophen-3-yl)-N-[(pyridin-4-yl)methyl]acetamide]
> 50	O=C(CN1CCC(c2ccccc2)CC1)N(Cc1ccncc1)C1C=CS(=O)(=O)C1 (stereo not shown) [I-571, N-(1,1-dioxo-2,3-dihydro-1lambda6-thiophen-3-yl)-2-(4-phenylpiperidin-1-yl)-N-[(pyridin-4-yl)methyl]acetamide]
0.5 to 5	COc1cc(CN(C(=O)C2Cc3cc(C(F)(F)F)ccc3O2)[C@@H]2C=CS(=O)(=O)C2)ccn1 (stereo partly drawn) [I-114, N-[(3R)-1,1-dioxo-2,3-dihydro-1lambda6-thiophen-3-yl]-N-[(2-methoxypyridin-4-yl)methyl]-5-(trifluoromethyl)-2,3-dihydro-1-benzofuran-2-carboxamide]
< 0.5	CC(C)(O)c1cc(CN(C(=O)Cc2ncc(-c3ccc(F)c(F)c3)cc2F)C2C=CS(=O)(=O)C2)ccn1 (single isomer, unassigned) [I-50, 2-(5-(3,4-difluorophenyl)-3-fluoropyridin-2-yl)-N-(1,1-dioxido-2,3-dihydrothiophen-3-yl)-N-((2-(2-hydroxypropan-2-yl)pyridin-4-yl)methyl)acetamide]
5 to 10	O=C(Cc1ccc(-n2cccc2)cc1)N(Cc1ccc(F)cc1F)C1C=CS(=O)(=O)C1 (stereo not shown) [I-242, N-[(2,4-difluorophenyl)methyl]-N-(1,1-dioxo-2,3-dihydro-1lambda6-thiophen-3-yl)-2-[4-(1H-pyrrol-1-yl)phenyl]acetamide]
10 to 50	O=C(Cn1nc(-c2ccccc2)ccc1=O)N(Cc1ccncc1)C1C=CS(=O)(=O)C1 (stereo not shown) [I-326, N-(1,1-dioxo-2,3-dihydro-1lambda6-thiophen-3-yl)-2-(6-oxo-3-phenyl-1,6-dihydropyridazin-1-yl)-N-[(pyridin-4-yl)methyl]acetamide]
< 0.5	COc1cc(CN(C(=O)Cn2cc(-c3ccc(F)cc3)cn2)[C@@H]2C=CS(=O)(=O)C2)ccn1 [I-26, N-[(3R)-1,1-dioxo-2,3-dihydro-1lambda6-thiophen-3-yl]-2-[4-(4-fluorophenyl)-1H-pyrazol-1-yl]-N-[(2-methoxypyridin-4-yl)methyl]acetamide]
> 50	O=C(Cn1cnc(-c2ccccc2)n1)N(Cc1ccncc1)C1C=CS(=O)(=O)C1 (stereo not shown) [I-420, N-(1,1-dioxo-2,3-dihydro-1lambda6-thiophen-3-yl)-2-(3-phenyl-1H-1,2,4-triazol-1-yl)-N-[(pyridin-4-yl)methyl]acetamide]
0.5 to 5	CC(C(=O)N(Cc1ccnc(C(C)(C)O)c1)C1C=CS(=O)(=O)C1)n1cc(-c2ccc(C(F)(F)F)cc2)cn1 (single isomer, unassigned) [I-775, (2R*)-N-[(3R**)-1,1-dioxo-2,3-dihydro-1lambda6-thiophen-3-yl]-N-{[2-(2-hydroxypropan-2-yl)pyridin-4-yl]methyl}-2-{4-[4-(trifluoromethyl)phenyl]-1H-pyrazol-1-yl}propanamide]
